Measured values reported in ChEMBL document CHEMBL4507281, “Data for DCP probe BI-4394” (2021).

Columns and labels:
[1] = molecular target: Serine/threonine-protein kinase TAO2 (Homo sapiens) (UniProt Q9UL54); conditions: Compound concentration 100.0 nM
[2] = molecular target: Cyclin-dependent kinase 17 (Homo sapiens) (UniProt Q00537); conditions: Compound concentration 100.0 nM
[3] = molecular target: BDNF/NT-3 growth factors receptor (Homo sapiens) (UniProt Q16620); conditions: Compound concentration 100.0 nM
[4] = molecular target: Serine/threonine-protein kinase 36 (Homo sapiens) (UniProt Q9NRP7); conditions: Compound concentration 100.0 nM
[5] = molecular target: Mitogen-activated protein kinase kinase kinase 2 (Homo sapiens) (UniProt Q9Y2U5); conditions: Compound concentration 100.0 nM
[6] = molecular target: Serine/threonine-protein kinase ULK2 (Homo sapiens) (UniProt Q8IYT8); conditions: Compound concentration 100.0 nM
[7] = molecular target: Serine/threonine-protein kinase 10 (Homo sapiens) (UniProt O94804); conditions: Compound concentration 100.0 nM
[8] = molecular target: Serine/threonine-protein kinase WNK2 (Homo sapiens) (UniProt Q9Y3S1); conditions: Compound concentration 100.0 nM
[9] = molecular target: Ribosomal protein S6 kinase alpha-2 (Homo sapiens) (UniProt Q15349); conditions: Compound concentration 100.0 nM
[10] = molecular target: Leucine-rich repeat serine/threonine-protein kinase 2 (Homo sapiens) (UniProt Q5S007); conditions: Compound concentration 100.0 nM
[11] = molecular target: Receptor tyrosine-protein kinase erbB-3 (Homo sapiens) (UniProt P21860); conditions: Compound concentration 100.0 nM
[12] = molecular target: Cyclin-dependent kinase-like 2 (Homo sapiens) (UniProt Q92772); conditions: Compound concentration 100.0 nM
[13] = molecular target: Activin receptor type-2A (Homo sapiens) (UniProt P27037); conditions: Compound concentration 100.0 nM
[14] = molecular target: Histamine H4 receptor (Homo sapiens) (UniProt Q9H3N8); conditions: Compound concentration 10.0 uM
[15] = molecular target: Serine/threonine-protein kinase Nek9 (Homo sapiens) (UniProt Q8TD19); conditions: Compound concentration 100.0 nM
[16] = molecular target: Serine/threonine-protein kinase DCLK2 (Homo sapiens) (UniProt Q8N568); conditions: Compound concentration 100.0 nM
[17] = molecular target: T1, Tyrosine-protein kinase JAK3 (Homo sapiens) (UniProt P52333); conditions: Compound concentration 100.0 nM
T1 sequence (whole entry): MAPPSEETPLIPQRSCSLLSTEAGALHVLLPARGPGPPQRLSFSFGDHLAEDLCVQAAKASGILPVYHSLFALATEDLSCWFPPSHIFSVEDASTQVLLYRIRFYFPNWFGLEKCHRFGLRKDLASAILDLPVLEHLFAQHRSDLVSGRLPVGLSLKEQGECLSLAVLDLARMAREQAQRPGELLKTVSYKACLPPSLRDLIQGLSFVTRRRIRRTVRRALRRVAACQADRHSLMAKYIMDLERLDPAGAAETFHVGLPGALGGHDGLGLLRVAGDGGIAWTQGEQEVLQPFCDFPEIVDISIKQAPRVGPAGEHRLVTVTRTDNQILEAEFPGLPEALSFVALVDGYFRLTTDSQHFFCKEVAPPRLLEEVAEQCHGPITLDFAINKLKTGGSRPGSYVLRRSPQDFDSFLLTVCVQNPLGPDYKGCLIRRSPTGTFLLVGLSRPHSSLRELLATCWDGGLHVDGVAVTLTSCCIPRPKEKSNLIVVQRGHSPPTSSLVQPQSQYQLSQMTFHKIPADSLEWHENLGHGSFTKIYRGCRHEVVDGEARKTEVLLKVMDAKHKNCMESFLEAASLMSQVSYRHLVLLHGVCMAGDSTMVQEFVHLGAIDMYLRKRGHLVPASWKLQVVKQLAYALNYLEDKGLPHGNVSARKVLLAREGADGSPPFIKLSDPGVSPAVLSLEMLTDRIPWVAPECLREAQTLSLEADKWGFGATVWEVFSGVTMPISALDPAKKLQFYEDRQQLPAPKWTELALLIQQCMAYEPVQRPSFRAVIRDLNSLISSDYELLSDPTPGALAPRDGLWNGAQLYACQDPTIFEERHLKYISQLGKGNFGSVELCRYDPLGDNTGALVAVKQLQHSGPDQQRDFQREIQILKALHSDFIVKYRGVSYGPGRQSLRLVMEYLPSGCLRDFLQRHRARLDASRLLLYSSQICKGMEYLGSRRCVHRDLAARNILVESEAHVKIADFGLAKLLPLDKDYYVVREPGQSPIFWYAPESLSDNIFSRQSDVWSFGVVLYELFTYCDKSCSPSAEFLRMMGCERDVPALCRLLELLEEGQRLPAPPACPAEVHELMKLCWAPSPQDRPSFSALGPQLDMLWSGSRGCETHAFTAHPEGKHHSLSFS

[18] = molecular target: Serine/threonine-protein kinase 16 (Homo sapiens) (UniProt O75716); conditions: Compound concentration 100.0 nM
[19] = molecular target: Casein kinase I isoform alpha-like (Homo sapiens) (UniProt Q8N752); conditions: Compound concentration 100.0 nM
[20] = molecular target: Mitogen-activated protein kinase 7 (Homo sapiens) (UniProt Q13164); conditions: Compound concentration 100.0 nM
[21] = molecular target: Death-associated protein kinase 3 (Homo sapiens) (UniProt O43293); conditions: Compound concentration 100.0 nM
[22] = molecular target: T2, Tyrosine-protein kinase ZAP-70 (Homo sapiens) (UniProt P43403); conditions: Compound concentration 10.0 uM
T2 sequence (whole entry): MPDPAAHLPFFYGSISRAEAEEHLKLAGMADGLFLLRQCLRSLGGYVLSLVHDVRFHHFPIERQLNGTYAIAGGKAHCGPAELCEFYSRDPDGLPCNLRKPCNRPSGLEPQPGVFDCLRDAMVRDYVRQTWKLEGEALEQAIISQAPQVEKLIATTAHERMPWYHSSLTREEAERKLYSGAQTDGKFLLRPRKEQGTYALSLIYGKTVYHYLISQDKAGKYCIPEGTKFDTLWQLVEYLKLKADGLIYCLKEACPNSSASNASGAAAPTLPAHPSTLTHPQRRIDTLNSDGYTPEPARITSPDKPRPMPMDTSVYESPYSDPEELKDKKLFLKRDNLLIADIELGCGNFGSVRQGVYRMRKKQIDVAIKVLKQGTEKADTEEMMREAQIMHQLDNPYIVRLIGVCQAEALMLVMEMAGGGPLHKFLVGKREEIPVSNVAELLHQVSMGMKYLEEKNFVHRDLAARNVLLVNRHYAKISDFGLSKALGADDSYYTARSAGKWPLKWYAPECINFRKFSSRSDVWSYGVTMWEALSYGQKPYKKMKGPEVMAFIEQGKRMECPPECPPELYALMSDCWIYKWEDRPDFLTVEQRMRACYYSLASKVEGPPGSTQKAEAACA

Sequence of Mitogen-activated protein kinase 7 (Homo sapiens) (Q13164 2-816 limits assumed): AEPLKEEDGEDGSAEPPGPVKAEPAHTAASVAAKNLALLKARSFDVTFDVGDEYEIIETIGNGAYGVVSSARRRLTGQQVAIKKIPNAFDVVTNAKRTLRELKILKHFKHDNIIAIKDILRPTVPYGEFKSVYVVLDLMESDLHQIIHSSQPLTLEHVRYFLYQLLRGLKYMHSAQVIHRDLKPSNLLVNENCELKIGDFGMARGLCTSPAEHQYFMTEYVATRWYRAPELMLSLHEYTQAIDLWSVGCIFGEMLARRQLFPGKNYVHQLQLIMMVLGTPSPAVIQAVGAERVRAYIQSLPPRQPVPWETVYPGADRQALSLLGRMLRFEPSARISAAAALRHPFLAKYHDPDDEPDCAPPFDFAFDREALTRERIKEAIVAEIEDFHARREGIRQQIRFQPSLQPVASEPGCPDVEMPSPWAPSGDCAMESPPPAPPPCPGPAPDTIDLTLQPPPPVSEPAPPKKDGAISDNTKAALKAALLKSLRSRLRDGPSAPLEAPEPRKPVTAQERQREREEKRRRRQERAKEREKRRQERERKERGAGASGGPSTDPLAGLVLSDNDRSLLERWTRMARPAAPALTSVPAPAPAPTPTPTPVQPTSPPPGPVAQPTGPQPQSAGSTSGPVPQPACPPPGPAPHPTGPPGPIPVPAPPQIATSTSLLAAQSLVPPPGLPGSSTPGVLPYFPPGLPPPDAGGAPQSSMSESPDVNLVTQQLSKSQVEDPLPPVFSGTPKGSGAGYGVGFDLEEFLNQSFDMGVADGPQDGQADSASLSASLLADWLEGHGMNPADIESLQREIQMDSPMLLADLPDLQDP
Sequence of Serine/threonine-protein kinase 36 (Homo sapiens) (Q9NRP7 whole entry): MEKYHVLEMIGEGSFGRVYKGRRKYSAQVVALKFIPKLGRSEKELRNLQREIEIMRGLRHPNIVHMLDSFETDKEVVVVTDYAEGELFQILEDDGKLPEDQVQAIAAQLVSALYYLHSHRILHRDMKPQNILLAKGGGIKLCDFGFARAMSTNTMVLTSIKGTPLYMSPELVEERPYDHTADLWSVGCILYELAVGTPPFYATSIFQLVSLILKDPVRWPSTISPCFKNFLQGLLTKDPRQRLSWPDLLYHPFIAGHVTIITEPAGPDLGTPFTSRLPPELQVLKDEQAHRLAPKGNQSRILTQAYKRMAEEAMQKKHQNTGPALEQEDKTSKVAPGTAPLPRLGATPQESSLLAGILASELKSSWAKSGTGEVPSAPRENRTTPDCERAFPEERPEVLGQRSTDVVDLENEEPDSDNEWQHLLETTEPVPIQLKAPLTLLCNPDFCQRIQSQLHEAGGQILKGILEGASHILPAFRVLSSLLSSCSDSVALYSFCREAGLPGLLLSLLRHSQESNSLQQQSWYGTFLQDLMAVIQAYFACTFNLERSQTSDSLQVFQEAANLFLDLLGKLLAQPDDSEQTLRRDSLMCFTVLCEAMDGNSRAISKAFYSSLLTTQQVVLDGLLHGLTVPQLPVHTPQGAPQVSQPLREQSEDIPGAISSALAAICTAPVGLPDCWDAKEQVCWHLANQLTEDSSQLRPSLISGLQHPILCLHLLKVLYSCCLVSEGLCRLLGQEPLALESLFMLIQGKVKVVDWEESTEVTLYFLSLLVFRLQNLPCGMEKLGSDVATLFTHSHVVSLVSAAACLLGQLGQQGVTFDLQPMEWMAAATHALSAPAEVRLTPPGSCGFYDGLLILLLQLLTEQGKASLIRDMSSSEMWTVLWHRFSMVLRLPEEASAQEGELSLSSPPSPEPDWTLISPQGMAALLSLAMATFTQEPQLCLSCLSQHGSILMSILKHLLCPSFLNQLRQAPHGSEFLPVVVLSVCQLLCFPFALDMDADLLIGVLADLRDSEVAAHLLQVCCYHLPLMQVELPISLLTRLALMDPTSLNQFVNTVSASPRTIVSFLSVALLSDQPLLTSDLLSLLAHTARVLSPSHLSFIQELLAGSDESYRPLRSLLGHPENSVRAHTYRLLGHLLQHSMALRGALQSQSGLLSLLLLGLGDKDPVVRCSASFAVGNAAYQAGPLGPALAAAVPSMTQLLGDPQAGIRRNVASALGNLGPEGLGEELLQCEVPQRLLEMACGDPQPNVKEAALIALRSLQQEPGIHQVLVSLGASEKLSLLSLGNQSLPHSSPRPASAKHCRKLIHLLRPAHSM
Sequence of Leucine-rich repeat serine/threonine-protein kinase 2 (Homo sapiens) (Q5S007 whole entry): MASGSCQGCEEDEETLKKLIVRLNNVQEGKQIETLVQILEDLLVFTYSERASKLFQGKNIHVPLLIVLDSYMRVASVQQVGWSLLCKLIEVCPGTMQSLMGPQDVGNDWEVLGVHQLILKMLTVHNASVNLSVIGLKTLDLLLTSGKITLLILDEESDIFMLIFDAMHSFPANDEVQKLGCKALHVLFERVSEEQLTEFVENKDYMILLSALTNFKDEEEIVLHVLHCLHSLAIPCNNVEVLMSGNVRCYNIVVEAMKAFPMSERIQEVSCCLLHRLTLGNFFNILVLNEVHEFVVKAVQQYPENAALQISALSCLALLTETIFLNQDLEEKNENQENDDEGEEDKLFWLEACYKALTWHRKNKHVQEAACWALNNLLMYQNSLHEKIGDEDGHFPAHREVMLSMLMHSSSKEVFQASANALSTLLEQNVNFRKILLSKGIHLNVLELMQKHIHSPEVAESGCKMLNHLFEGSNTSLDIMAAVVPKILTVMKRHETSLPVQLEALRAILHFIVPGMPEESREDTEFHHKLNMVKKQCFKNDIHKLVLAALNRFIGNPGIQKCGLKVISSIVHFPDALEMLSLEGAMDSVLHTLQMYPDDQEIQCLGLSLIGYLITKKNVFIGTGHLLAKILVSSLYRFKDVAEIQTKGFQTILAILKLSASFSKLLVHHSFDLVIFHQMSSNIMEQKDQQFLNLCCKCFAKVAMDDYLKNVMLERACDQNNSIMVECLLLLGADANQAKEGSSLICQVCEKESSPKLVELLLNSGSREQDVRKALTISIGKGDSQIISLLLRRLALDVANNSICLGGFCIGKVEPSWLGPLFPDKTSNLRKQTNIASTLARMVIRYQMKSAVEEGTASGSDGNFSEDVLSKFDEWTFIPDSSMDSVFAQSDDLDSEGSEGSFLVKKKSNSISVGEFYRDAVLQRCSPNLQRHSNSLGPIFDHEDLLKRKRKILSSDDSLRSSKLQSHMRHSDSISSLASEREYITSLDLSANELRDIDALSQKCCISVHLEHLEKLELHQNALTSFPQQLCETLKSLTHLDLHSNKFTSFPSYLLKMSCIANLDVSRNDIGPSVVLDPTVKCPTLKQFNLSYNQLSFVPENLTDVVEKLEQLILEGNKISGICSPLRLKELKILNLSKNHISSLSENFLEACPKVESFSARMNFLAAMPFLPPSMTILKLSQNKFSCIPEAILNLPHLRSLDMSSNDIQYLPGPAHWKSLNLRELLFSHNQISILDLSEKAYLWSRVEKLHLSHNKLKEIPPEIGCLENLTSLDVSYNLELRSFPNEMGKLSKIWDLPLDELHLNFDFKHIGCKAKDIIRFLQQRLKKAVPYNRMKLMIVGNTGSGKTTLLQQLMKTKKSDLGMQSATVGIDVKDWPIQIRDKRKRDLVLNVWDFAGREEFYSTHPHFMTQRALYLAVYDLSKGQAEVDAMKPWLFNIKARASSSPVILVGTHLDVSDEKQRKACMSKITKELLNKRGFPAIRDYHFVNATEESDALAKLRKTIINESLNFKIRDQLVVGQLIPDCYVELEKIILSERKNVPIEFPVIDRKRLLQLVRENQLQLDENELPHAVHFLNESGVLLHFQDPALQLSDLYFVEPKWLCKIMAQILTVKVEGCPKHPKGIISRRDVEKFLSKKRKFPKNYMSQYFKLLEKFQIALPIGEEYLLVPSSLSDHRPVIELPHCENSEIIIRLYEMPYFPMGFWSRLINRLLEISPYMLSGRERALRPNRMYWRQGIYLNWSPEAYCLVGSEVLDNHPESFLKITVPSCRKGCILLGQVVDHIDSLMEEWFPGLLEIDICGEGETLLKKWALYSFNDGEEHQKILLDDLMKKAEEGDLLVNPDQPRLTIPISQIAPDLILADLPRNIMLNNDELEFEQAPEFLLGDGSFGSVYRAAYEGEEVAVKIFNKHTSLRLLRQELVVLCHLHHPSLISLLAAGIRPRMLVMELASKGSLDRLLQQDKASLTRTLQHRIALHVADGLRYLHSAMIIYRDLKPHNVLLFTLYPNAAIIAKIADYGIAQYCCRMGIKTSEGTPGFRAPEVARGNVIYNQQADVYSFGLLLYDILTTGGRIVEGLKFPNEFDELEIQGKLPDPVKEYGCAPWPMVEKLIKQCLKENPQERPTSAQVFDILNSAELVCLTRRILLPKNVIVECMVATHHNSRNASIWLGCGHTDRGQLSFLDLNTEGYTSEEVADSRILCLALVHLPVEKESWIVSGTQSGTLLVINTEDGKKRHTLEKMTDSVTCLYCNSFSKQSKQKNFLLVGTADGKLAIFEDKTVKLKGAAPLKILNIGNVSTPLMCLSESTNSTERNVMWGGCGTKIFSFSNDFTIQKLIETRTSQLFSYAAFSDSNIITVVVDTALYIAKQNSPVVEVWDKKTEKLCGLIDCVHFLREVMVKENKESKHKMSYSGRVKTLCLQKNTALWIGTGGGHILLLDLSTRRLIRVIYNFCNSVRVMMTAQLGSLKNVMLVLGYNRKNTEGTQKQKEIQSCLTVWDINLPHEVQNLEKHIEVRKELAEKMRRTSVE
Sequence of Histamine H4 receptor (Homo sapiens) (Q9H3N8 whole entry): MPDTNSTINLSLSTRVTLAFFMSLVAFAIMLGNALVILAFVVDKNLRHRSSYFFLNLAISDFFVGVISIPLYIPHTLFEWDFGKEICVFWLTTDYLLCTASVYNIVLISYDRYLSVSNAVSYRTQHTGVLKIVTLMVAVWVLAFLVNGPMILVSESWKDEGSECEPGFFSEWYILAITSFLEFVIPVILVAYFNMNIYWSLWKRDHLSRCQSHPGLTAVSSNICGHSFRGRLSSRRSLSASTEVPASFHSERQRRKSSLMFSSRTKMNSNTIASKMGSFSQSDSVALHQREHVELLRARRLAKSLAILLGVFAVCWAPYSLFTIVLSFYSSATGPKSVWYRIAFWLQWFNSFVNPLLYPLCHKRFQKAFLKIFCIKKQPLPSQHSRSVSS

Cn1nc(C(=O)NCc2ccc(C(=O)O)cc2)cc1-c1ccc2[nH]ccc2c1 [BI 4395]
inactive: residual activity [1] 82% | residual activity [2] 77% | residual activity [3] 92% | residual activity [4] 93% | residual activity [5] 75% | residual activity [6] 98% | residual activity [7] 80% | residual activity [8] 70% | residual activity [9] 100% | residual activity [10] 75% | residual activity [11] 77% | residual activity [12] 78% | residual activity [13] 98% | inhibition [14] -6.14% | residual activity [15] 99% | residual activity [16] 92% | residual activity [17] 65% | residual activity [18] 86% | residual activity [19] 94% | residual activity [20] 87% | residual activity [21] 86%

CCOC(=O)c1cc2cc(-c3cc(C(=O)NCc4ccc(C(=O)O)cc4)nn3C)ccc2[nH]1 [BI 4394]
inactive: residual activity [1] 90% | residual activity [2] 100% | residual activity [3] 91% | residual activity [4] 97% | residual activity [5] 100% | residual activity [6] 78% | residual activity [7] 100% | residual activity [8] 85% | residual activity [9] 100% | residual activity [10] 81% | residual activity [11] 81% | residual activity [12] 88% | residual activity [13] 59% | inhibition [14] -1.52% | residual activity [15] 98% | residual activity [16] 100% | residual activity [17] 82% | residual activity [18] 78% | residual activity [19] 100% | residual activity [20] 100% | residual activity [22] 100% | residual activity [21] 98%
